According to paper PMC6120666 (The EMBO Journal, 2018):

Tests used:
Test in all cases: Drug affinity chromatography with c-ponatinib and LC-MS/MS (ponatinib interactome)
Type in all cases: binding
[1] = molecular target: T1, proteins of U2OS cell lysate (Homo sapiens, UniProt P62820); conditions: RAB1A;RAB1B, Ras-related protein Rab-1A
T1 construct: Proteins enriched by c-ponatinib from U2OS cell lysate; endogenous in cells; host or cells: U2OS cell lysate
Summary of the method: (§1)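 U2OS cell lysate in NP-40 lysis buffer (2 mg protein per pulldown) was incubated with amine-derivatized NHS beads for 2 h at 4 °C. Bound proteins were washed, eluted with 100 mM formic acid, reduced, alkylated and trypsin-digested, then identified by nano-UPLC–MS/MS on Orbitrap instruments with a 60 min gradient.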

[2] = molecular target: T2, proteins of U2OS cell lysate (Homo sapiens, UniProt P62491); conditions: RAB11A;RAB11B, Ras-related protein Rab-11A
T2 construct: Proteins enriched by c-ponatinib from U2OS cell lysate; endogenous in cells; host or cells: U2OS cell lysate
Summary of the method: as §1

[3] = molecular target: T3, proteins of U2OS cell lysate (Homo sapiens, UniProt P34913); conditions: EPHX2, Bifunctional epoxide hydrolase 2
T3 construct: Proteins enriched by c-ponatinib from U2OS cell lysate; endogenous in cells; host or cells: U2OS cell lysate
Summary of the method: as §1

[4] = molecular target: T4, proteins of U2OS cell lysate (Homo sapiens, UniProt Q14165); conditions: MLEC, Malectin
T4 construct: Proteins enriched by c-ponatinib from U2OS cell lysate; endogenous in cells; host or cells: U2OS cell lysate
Summary of the method: as §1

[5] = molecular target: T5, proteins of U2OS cell lysate (Homo sapiens, UniProt P62854); conditions: RPS26;RPS26P11, 40S ribosomal protein S26
T5 construct: Proteins enriched by c-ponatinib from U2OS cell lysate; endogenous in cells; host or cells: U2OS cell lysate
Summary of the method: as §1

[6] = molecular target: T6, proteins of U2OS cell lysate (Homo sapiens, UniProt P29692); conditions: EEF1D, Elongation factor 1-delta
T6 construct: Proteins enriched by c-ponatinib from U2OS cell lysate; endogenous in cells; host or cells: U2OS cell lysate
Summary of the method: as §1

[7] = molecular target: T7, proteins of U2OS cell lysate (Homo sapiens, UniProt O75821); conditions: EIF3G, Eukaryotic translation initiation factor 3 subunit G
T7 construct: Proteins enriched by c-ponatinib from U2OS cell lysate; endogenous in cells; host or cells: U2OS cell lysate
Summary of the method: as §1

[8] = molecular target: T8, proteins of U2OS cell lysate (Homo sapiens, UniProt Q13011); conditions: ECH1, Delta(3,5)-Delta(2,4)-dienoyl-CoA isomerase, mitochondrial
T8 construct: Proteins enriched by c-ponatinib from U2OS cell lysate; endogenous in cells; host or cells: U2OS cell lysate
Summary of the method: as §1

[9] = molecular target: T9, proteins of U2OS cell lysate (Homo sapiens, UniProt O00487); conditions: PSMD14, 26S proteasome non-ATPase regulatory subunit 14
T9 construct: Proteins enriched by c-ponatinib from U2OS cell lysate; endogenous in cells; host or cells: U2OS cell lysate
Summary of the method: as §1

[10] = molecular target: T10, proteins of U2OS cell lysate (Homo sapiens, UniProt P05141); conditions: SLC25A5;SLC25A6;SLC25A4, ADP/ATP translocase 2
T10 construct: Proteins enriched by c-ponatinib from U2OS cell lysate; endogenous in cells; host or cells: U2OS cell lysate
Summary of the method: as §1

[11] = molecular target: T11, proteins of U2OS cell lysate (Homo sapiens, UniProt P49207); conditions: RPL34, 60S ribosomal protein L34
T11 construct: Proteins enriched by c-ponatinib from U2OS cell lysate; endogenous in cells; host or cells: U2OS cell lysate
Summary of the method: as §1

[12] = molecular target: T12, proteins of U2OS cell lysate (Homo sapiens, UniProt Q13561); conditions: DCTN2, Dynactin subunit 2
T12 construct: Proteins enriched by c-ponatinib from U2OS cell lysate; endogenous in cells; host or cells: U2OS cell lysate
Summary of the method: as §1

[13] = molecular target: T13, proteins of U2OS cell lysate (Homo sapiens, UniProt P27707); conditions: DCK, Deoxycytidine kinase
T13 construct: Proteins enriched by c-ponatinib from U2OS cell lysate; endogenous in cells; host or cells: U2OS cell lysate
Summary of the method: as §1

[14] = molecular target: T14, proteins of U2OS cell lysate (Homo sapiens, UniProt P55084); conditions: HADHB, Trifunctional enzyme subunit beta, mitochondrial
T14 construct: Proteins enriched by c-ponatinib from U2OS cell lysate; endogenous in cells; host or cells: U2OS cell lysate
Summary of the method: as §1

[15] = molecular target: T15, proteins of U2OS cell lysate (Homo sapiens, UniProt P0DMV9); conditions: HSPA1B, Heat shock 70 kDa protein 1B
T15 construct: Proteins enriched by c-ponatinib from U2OS cell lysate; endogenous in cells; host or cells: U2OS cell lysate
Summary of the method: as §1

[16] = molecular target: T16, proteins of U2OS cell lysate (Homo sapiens, UniProt O75935); conditions: DCTN3, Dynactin subunit 3
T16 construct: Proteins enriched by c-ponatinib from U2OS cell lysate; endogenous in cells; host or cells: U2OS cell lysate
Summary of the method: as §1

[17] = molecular target: T17, proteins of U2OS cell lysate (Homo sapiens, UniProt P06748); conditions: NPM1, Nucleophosmin
T17 construct: Proteins enriched by c-ponatinib from U2OS cell lysate; endogenous in cells; host or cells: U2OS cell lysate
Summary of the method: as §1

[18] = molecular target: T18, proteins of U2OS cell lysate (Homo sapiens, UniProt Q9HAV4); conditions: captured protein XPO5, Rank 207
T18 construct: Proteins enriched by c-ponatinib from U2OS cell lysate; endogenous in cells; host or cells: U2OS cell lysate
Summary of the method: as §1

[19] = molecular target: T19, proteins of U2OS cell lysate (Homo sapiens, UniProt P62826); conditions: captured protein RAN, Rank 147
T19 construct: Proteins enriched by c-ponatinib from U2OS cell lysate; endogenous in cells; host or cells: U2OS cell lysate
Summary of the method: as §1

T2 sequence (P62491 whole entry): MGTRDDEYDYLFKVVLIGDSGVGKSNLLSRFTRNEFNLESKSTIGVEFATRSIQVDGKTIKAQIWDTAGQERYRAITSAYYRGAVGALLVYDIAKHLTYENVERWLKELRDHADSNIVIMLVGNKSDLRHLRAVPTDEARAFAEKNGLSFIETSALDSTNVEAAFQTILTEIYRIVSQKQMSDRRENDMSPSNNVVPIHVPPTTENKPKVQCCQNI
T10 sequence (P05141 whole entry): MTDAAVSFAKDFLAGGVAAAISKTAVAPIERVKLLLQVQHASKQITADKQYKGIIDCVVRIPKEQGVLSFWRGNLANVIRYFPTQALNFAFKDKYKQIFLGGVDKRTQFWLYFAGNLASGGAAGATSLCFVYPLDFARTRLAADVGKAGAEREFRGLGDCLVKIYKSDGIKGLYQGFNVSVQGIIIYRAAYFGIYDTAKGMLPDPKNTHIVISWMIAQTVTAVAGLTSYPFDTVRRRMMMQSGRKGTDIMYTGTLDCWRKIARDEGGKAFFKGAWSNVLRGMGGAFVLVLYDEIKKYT
T1 sequence (P62820 whole entry): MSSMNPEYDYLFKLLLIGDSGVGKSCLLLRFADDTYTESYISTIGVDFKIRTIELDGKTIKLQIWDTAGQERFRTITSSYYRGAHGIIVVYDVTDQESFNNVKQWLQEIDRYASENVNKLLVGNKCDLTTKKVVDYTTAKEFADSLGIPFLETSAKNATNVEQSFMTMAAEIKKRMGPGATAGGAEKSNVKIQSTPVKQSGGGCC
T16 sequence (O75935 whole entry): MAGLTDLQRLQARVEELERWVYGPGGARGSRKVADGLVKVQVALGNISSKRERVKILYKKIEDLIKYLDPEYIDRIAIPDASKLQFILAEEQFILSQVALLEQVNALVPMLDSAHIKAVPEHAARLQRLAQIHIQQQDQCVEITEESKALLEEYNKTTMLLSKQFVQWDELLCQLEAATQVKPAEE
T3 sequence (P34913 whole entry): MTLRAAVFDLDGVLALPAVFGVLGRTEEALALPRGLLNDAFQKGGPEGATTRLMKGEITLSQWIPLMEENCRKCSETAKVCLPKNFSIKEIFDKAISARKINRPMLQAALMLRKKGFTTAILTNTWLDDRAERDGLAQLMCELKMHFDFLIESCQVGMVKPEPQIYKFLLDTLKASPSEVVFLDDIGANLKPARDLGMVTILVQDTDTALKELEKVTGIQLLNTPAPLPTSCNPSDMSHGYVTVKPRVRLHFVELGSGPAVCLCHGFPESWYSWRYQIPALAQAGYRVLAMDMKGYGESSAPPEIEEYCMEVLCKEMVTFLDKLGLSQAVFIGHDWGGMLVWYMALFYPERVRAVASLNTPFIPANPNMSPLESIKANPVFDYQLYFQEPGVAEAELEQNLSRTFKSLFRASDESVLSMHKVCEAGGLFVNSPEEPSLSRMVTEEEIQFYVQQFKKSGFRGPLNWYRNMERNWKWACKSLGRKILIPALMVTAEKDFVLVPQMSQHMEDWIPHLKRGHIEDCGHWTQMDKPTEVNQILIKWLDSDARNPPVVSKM
T4 sequence (Q14165 29-292): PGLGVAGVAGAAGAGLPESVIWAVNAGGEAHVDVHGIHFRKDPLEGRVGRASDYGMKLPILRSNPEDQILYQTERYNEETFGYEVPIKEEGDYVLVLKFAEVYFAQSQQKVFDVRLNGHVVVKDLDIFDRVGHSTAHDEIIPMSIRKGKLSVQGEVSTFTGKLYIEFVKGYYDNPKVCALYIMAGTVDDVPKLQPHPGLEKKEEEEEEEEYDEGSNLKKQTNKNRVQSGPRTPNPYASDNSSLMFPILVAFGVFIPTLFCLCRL
T15 sequence (P0DMV9 whole entry): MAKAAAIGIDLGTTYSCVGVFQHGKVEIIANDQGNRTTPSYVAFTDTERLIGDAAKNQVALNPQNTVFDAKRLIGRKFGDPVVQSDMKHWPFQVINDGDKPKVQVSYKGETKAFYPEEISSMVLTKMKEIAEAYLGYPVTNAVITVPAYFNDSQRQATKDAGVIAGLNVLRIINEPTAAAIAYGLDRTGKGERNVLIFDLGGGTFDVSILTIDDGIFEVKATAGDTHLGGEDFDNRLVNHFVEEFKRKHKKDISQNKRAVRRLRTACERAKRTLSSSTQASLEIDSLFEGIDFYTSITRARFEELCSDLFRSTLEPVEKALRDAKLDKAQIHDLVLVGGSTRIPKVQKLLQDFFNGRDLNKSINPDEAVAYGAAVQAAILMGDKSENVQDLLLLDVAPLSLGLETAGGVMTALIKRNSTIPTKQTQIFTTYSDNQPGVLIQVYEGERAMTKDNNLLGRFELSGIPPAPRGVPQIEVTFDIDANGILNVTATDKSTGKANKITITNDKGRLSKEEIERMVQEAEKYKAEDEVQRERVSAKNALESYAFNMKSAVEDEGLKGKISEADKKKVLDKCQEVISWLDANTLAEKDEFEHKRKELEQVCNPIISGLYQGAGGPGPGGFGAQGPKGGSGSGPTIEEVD
T9 sequence (O00487 whole entry): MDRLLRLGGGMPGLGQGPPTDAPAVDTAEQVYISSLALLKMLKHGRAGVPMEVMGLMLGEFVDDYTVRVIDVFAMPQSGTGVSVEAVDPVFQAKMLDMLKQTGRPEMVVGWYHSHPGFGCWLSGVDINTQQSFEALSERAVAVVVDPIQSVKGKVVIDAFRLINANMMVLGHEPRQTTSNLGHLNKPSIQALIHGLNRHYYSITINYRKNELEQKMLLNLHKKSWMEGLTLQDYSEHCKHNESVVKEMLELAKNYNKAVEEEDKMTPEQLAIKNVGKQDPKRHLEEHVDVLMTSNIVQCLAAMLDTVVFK
T14 sequence (P55084 34-474): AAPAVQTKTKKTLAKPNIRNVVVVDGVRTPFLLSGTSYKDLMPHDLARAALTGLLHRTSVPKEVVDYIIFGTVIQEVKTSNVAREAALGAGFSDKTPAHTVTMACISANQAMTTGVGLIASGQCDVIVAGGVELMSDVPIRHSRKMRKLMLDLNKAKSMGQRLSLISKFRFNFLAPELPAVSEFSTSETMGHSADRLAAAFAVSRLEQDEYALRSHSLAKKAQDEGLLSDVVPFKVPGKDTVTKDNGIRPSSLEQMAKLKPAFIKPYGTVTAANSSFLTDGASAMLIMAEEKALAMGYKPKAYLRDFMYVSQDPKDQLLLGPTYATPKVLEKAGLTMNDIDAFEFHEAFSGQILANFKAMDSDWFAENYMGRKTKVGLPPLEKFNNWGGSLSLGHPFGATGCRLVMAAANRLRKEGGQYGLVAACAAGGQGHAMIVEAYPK
T17 sequence (P06748 whole entry): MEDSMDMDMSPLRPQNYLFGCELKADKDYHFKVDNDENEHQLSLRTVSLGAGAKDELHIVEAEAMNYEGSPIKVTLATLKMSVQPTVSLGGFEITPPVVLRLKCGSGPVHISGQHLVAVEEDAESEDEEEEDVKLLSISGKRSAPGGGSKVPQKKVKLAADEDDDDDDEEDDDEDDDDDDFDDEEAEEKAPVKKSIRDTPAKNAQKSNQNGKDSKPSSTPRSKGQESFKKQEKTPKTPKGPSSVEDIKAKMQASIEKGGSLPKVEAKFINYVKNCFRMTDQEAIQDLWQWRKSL
T7 sequence (O75821 whole entry): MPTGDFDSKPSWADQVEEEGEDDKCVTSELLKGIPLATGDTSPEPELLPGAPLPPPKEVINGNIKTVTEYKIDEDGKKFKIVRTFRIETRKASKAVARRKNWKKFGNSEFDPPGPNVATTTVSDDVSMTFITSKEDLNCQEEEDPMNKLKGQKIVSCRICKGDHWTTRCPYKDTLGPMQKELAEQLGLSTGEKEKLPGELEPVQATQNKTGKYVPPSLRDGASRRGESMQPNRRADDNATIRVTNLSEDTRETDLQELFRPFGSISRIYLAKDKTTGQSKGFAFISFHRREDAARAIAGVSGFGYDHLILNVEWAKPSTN
T12 sequence (Q13561 whole entry): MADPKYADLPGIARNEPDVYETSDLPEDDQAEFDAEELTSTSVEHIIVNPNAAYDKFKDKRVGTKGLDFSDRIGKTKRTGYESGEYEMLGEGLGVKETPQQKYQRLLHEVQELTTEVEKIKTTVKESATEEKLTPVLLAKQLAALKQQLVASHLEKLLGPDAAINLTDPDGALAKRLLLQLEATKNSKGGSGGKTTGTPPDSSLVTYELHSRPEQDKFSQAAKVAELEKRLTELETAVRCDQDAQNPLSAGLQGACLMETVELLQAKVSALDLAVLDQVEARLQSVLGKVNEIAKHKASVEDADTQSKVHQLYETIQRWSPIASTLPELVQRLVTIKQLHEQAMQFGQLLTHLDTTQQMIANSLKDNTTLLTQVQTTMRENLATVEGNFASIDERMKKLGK
T6 sequence (P29692 whole entry): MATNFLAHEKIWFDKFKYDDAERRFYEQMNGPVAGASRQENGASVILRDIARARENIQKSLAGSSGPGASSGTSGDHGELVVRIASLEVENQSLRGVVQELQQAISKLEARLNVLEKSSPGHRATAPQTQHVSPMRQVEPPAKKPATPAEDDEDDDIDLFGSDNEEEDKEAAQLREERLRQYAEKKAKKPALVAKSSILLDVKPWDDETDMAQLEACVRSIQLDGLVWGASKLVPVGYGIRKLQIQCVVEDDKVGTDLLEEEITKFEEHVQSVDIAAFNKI
T13 sequence (P27707 whole entry): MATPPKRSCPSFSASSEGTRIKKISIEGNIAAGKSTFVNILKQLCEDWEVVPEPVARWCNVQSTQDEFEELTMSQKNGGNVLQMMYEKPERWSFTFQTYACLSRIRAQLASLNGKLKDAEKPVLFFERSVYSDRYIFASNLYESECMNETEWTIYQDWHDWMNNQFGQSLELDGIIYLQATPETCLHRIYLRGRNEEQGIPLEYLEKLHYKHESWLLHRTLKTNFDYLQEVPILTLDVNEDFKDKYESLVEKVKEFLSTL

Structure (SMILES)	Average LFQ PON_WT [1]	Average LFQ PON_WT [2]	Average LFQ PON_WT [3]	Average LFQ PON_WT [4]	Average LFQ PON_WT [5]	Average LFQ PON_WT [6]	Average LFQ PON_WT [7]	Average LFQ PON_WT [8]	Average LFQ PON_WT [9]	Average LFQ PON_WT [10]	Average LFQ PON_WT [11]	Average LFQ PON_WT [12]	Average LFQ PON_WT [13]	Average LFQ PON_WT [14]	Average LFQ PON_WT [15]	Average LFQ PON_WT [16]	Average LFQ PON_WT [17]	Average LFQ intensity [18]	Average LFQ intensity [19]
Cc1ccc(C(=O)Nc2ccc(CN3CCN(C)CC3)c(C(F)(F)F)c2)cc1C#Cc1cnc2cccnn12 [PON]	23.3468	22.3634	24.5257	19.5713	21.6239	24.6531	21.2492	25.3624	20.7842	25.3771	21.0301	23.2725	29.7769	23.6834	24.1054	20.8844	21.1903		
Cc1ccc(C(=O)Nc2ccc(CN3CCN(CCCN)CC3)c(C(F)(F)F)c2)cc1C#Cc1cnc2cccnn12 [c-ponatinib, reference compound]																		21.7615	22.7198
